Data as given in US20260285850A1, “SUBSTITUTED OXAZOLIDINONES AND IMIDAZOLINONES AS HERBICIDES” (FMC CORPORATION, priority 2023, published 2026).

Columns and labels:
Format in all cases: in vivo
[1] = tested on: barnyardgrass (Echinochloa crus-galli); assay: Test A preemergence soil spray, visual injury rating 0-100; conditions: 10 days, 0 = no effect, 100 = complete control
Procedure, shortened: (§1)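 Plants were grown in a loam soil-sand blend and treated with test chemical in a non-phytotoxic solvent mixture containing surfactant, either sprayed on soil preemergence or applied postemergence to 2-10 cm plants. After 10 days in a greenhouse, injury was scored visually against untreated controls, 0 meaning no effect and 100 complete control.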

[2] = tested on: blackgrass (Alopecurus myosuroides); assay: as above; conditions: 10 days, 0 = no effect, 100 = complete control
Procedure, shortened: as §1

[3] = tested on: corn (Zea mays); assay: as above; conditions: 10 days, 0 = no effect, 100 = complete control
Procedure, shortened: as §1

[4] = tested on: green foxtail (Setaria viridis); assay: as above; conditions: 10 days, 0 = no effect, 100 = complete control
Procedure, shortened: as §1

[5] = tested on: kochia (Bassia scoparia); assay: as above; conditions: 10 days, 0 = no effect, 100 = complete control
Procedure, shortened: as §1

[6] = tested on: oat, wild (wild oat, Avena fatua); assay: as above; conditions: 10 days, 0 = no effect, 100 = complete control
Procedure, shortened: as §1

[7] = tested on: palmer (palmer amaranth, palmer pigweed, Amaranthus palmeri); assay: as above; conditions: 10 days, 0 = no effect, 100 = complete control
Procedure, shortened: as §1

[8] = tested on: ragweed (common ragweed, Ambrosia artemisiifolia); assay: as above; conditions: 10 days, 0 = no effect, 100 = complete control
Procedure, shortened: as §1

[9] = tested on: soybean (Glycine max); assay: as above; conditions: 10 days, 0 = no effect, 100 = complete control
Procedure, shortened: as §1

[10] = tested on: wheat (Triticum aestivum); assay: as above; conditions: 10 days, 0 = no effect, 100 = complete control
Procedure, shortened: as §1

[11] = tested on: barnyardgrass (Echinochloa crus-galli); assay: Test A postemergence application, visual injury rating 0-100; conditions: 10 days
Procedure, shortened: as §1

[12] = tested on: blackgrass (Alopecurus myosuroides); assay: as above; conditions: 10 days
Procedure, shortened: as §1

[13] = tested on: corn (Zea mays); assay: as above; conditions: 10 days
Procedure, shortened: as §1

[14] = tested on: galium (catchweed bedstraw, Galium aparine); assay: as above; conditions: 10 days
Procedure, shortened: as §1

[15] = tested on: green foxtail (Setaria viridis); assay: as above; conditions: 10 days
Procedure, shortened: as §1

[16] = tested on: horseweed (Erigeron canadensis); assay: as above; conditions: 10 days
Procedure, shortened: as §1

[17] = tested on: kochia (Bassia scoparia); assay: as above; conditions: 10 days
Procedure, shortened: as §1

[18] = tested on: oat, wild (wild oat, Avena fatua); assay: as above; conditions: 10 days
Procedure, shortened: as §1

[19] = tested on: palmer (palmer amaranth, palmer pigweed, Amaranthus palmeri); assay: as above; conditions: 10 days
Procedure, shortened: as §1

[20] = tested on: ragweed (common ragweed, Ambrosia artemisiifolia); assay: as above; conditions: 10 days
Procedure, shortened: as §1

[21] = tested on: ryegrass, Italian (italian ryegrass, Lolium multiflorum); assay: as above; conditions: 10 days
Procedure, shortened: as §1

[22] = tested on: soybean (Glycine max); assay: as above; conditions: 10 days
Procedure, shortened: as §1

[23] = tested on: wheat (Triticum aestivum); assay: as above; conditions: 10 days
Procedure, shortened: as §1

[24] = tested on: barnyardgrass (Echinochloa crusgalli); assay: Test B flooded paddy test, visual plant response rating 0-100; conditions: 250 g ai/ha, Flood, applied to paddy water, evaluated after 13 days
Procedure, shortened: (§2)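 Plants were grown to the 2-leaf stage, then pots were flooded to 3 cm above the soil and compound was applied directly to the paddy water, with that depth kept throughout.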

[25] = tested on: ducksalad (Heteranthera limosa); assay: as above; conditions: 250 g ai/ha, Flood, applied to paddy water, evaluated after 13 days
Procedure, shortened: as §2

[26] = tested on: rice (Oryza sativa); assay: as above; conditions: 250 g ai/ha, Flood, applied to paddy water, evaluated after 13 days
Procedure, shortened: as §2

[27] = tested on: sedge, umbrella (small-flower umbrella sedge, Cyperus difformis); assay: as above; conditions: 250 g ai/ha, Flood, applied to paddy water, evaluated after 13 days
Procedure, shortened: as §2

[28] = 31 g ai/ha, postemergence, 0 = no effect, 100 = complete control
[29] = Postemergence, 125 g ai/ha, 0 is no effect, 100 is complete control

Question: What does the source list for `CC1(C(=O)NC2C=CC(C(=O)O)C2)CN(c2cc(F)cc(Cl)c2)C(=O)O1` (centres unmarked) [Compound 6]?
Answer: Barnyardgrass plant response rating (0-100) ([1]; 31 g ai/ha): 20; Barnyardgrass plant response rating (0 to 100 scale) ([1]; 125 g ai/ha): 100; Blackgrass plant response rating (0-100) ([2]; 31 g ai/ha): 30; Blackgrass plant response rating (0 to 100 scale) ([2]; 125 g ai/ha): 60; Corn plant response rating (0-100) ([3]; 31 g ai/ha): 30; Corn plant response rating (0 to 100 scale) ([3]; 125 g ai/ha): 90; Foxtail, Green plant response rating (0-100) ([4]; 31 g ai/ha): 50; Foxtail, Green plant response rating (0 to 100 scale) ([4]; 125 g ai/ha): 100; Kochia plant response rating (0-100) ([5]; 31 g ai/ha): 100; Kochia plant response rating (0 to 100 scale) ([5]; 125 g ai/ha): 100; Oat, Wild plant response rating (0-100) ([6]; 31 g ai/ha): 30; Oat, Wild plant response rating (0 to 100 scale) ([6]; 125 g ai/ha): 90; Amaranth, Palmer plant response rating (0-100) ([7]; 31 g ai/ha): 60; Amaranth, Palmer plant response rating (0 to 100 scale) ([7]; 125 g ai/ha): 90; Ragweed plant response rating (0-100) ([8]; 31 g ai/ha): 0; Ragweed plant response rating (0 to 100 scale) ([8]; 125 g ai/ha): 40; Soybean plant response rating (0-100) ([9]; 31 g ai/ha): 50; Soybean plant response rating (0 to 100 scale) ([9]; 125 g ai/ha): 80; Wheat plant response rating (0-100) ([10]; 31 g ai/ha): 50; Wheat plant response rating (0 to 100 scale) ([10]; 125 g ai/ha): 90; Barnyardgrass plant response rating (0-100) [11, 28]: 100; Barnyardgrass plant response rating (0 to 100 scale) [11, 29]: 100; Blackgrass plant response rating (0-100) [12, 28]: 80; Blackgrass plant response rating (0 to 100 scale) [12, 29]: 90; Corn plant response rating (0-100) [13, 28]: 100; Corn plant response rating (0 to 100 scale) [13, 29]: 100; Galium plant response rating (0-100) [14, 28]: 80; Galium plant response rating (0 to 100 scale) [14, 29]: 80; Foxtail, Green plant response rating (0-100) [15, 28]: 90; Foxtail, Green plant response rating (0 to 100 scale) [15, 29]: 90; Horseweed plant response rating (0-100) [16, 28]: 40; Horseweed plant response rating (0 to 100 scale) [16, 29]: 90; Kochia plant response rating (0-100) [17, 28]: 80; Kochia plant response rating (0 to 100 scale) [17, 29]: 80; Oat, Wild plant response rating (0-100) [18, 28]: 90; Oat, Wild plant response rating (0 to 100 scale) [18, 29]: 100; Amaranth, Palmer plant response rating (0-100) [19, 28]: 90; Amaranth, Palmer / Pigweed, Palmer plant response rating (0 to 100 scale) [19, 29]: 90; Ragweed plant response rating (0-100) [20, 28]: 60; Ragweed plant response rating (0 to 100 scale) [20, 29]: 80; Ryegrass, Italian plant response rating (0-100) [21, 28]: 80; Ryegrass, Italian plant response rating (0 to 100 scale) [21, 29]: 90; Soybean plant response rating (0-100) [22, 28]: 80; Soybean plant response rating (0 to 100 scale) [22, 29]: 80; Wheat plant response rating (0-100) [23, 28]: 90; Wheat plant response rating (0 to 100 scale) [23, 29]: 90; Plant response rating, Barnyardgrass (0 to 100 scale, 0 is no effect and 100 is complete control) [24]: 70; Plant response rating, Ducksalad (0 to 100 scale, 0 is no effect and 100 is complete control) [25]: 95; Plant response rating, Rice (0 to 100 scale, 0 is no effect and 100 is complete control) [26]: 35; Plant response rating, Sedge, Umbrella (0 to 100 scale, 0 is no effect and 100 is complete control) [27]: 95
